Data reported in patent US20260263618A1, “LIPID NANOPARTICLE FORMULATIONS AND COMPOSITIONS” (CAPSTAN THERAPEUTICS, INC., priority 2023, published 2026).

Assays:
[1] = target: signal regulatory protein α (SIRPα) (Homo sapiens, UniProt P78324); details: cited from earlier work
[2] = Ionizable cationic lipid in plasma, liver and spleen of NHP 24 hours after tLNP, LC/MS/MS; type: in vivo, cynomolgus macaques
Experimental: Samples were taken from cynomolgus macaques that had been intravenously administered either BF1 or F5 tLNPs (two each) at a dosage of 3 mg mRNA/kg in the preceding example. The tLNPs were conjugated to anti-C05 mentioned in Example 2 as the targeting moiety. 24 hours after administration the animals were sacrificed and plasma, liver, and spleen tissue collected from two animals in each group and assessed by mass spectrometry for presence of these ionizable cationic lipids in order to assess biodegradability and biodistribution of these ionizable cationic lipids.
Briefly, plasma was stabilized for mass spectrometry by addition of 10 μL of formic acid per mL of K2EDTA plasma. Spleen and liver tissue were homogenized in 19 parts of homogenization buffer (50:40:10 0.1% formic acid in 1:1 methanol:acetone/10 mM ammonium formate with 0.2% formic acid/dimethylformamide (DMF)) to 1 part tissue (v/w) using a Geno/Grinder® (SPEX® SamplePrep) set to two minutes at 1500 rpms.
Calibration curves and quality control samples were prepared by spiking control matrix (plasma or homogenate) with CICL1 or ALC-0315 in DMF. The extraction was performed on wet ice by adding 300 μL of crashing solvent (0.1% formic acid in 1:1 methanol:acetonitrile) to 25 μL of sample to which 50 μL of internal standard was added (1:1 isopropyl alcohol:water). The extracts were mixed for four minutes at 1500 rpms and then centrifuged at 3000×g for ten minutes. 200 μL of supernatant was transferred to a clean 96 well plate for LC/MS/MS analysis.
Chromatography was performed on a Waters XBridge BEH C8 column (130 Å, 2.5 μm, 2.1×30 mm) using the following gradient. Mobile phase A (10 mM ammonium format in water with 0.2% formic acid) was held at 20% for 0.3 minutes before being reduced to 5% over […]. This condition was held for one minute before being returned to 80% B (0.1% formic acid in 1:1 methanol:acetonitrile) in 0.1 minutes. The column was then held at 80% B for 1.4 minutes. LC flow rate was held at 0.5 mL/min and the autosampler held at 2-8° C. The mass spectrum was obtained with a triple quadrupole apparatus using atmospheric pressure ionization (Sciex).
Quantitation was performed using a 1/X2 quadratic regression using the peak area for transition 1013.6→968A (CICL1) or 766.6-748.4 (ALC-0315) over peak area of transition 1040.6→995.4 of the internal standard.

[3] = Time course of ionizable cationic lipid in plasma, spleen and liver of mice, LC-MS; type: in vivo; details: for plasma levels of lipid at 7 days: 2 mg/kg tLNP (F9 or BF1) targeted to mouse CD8, FIG. 13C
Experimental: To obtain more detailed data a similar experiment was conducted in mice where it was possible to obtain a time course of disappearance of the ionizable cationic lipid and the encapsulated mRNA as well. Mice were intravenously administered 2 mg/kg tLNP of composition BF1 (comprising ALC-0315) or F9 (comprising CICL1) targeted to mouse CD8 and encapsulating an anti-human CD19 CAR, and monitored through 7 days. At each timepoint, 3 mice were sacrificed, and liver, spleen, and plasma were processed for LC-MS-based detection of lipid concentration and digital PCR detection of the mRNA. In plasma, mRNA level was normalized to a known amount of mRNA spiked in a control. In spleen and liver mRNA level was normalized to mRNA for the housekeeping gene GAPDH.

[4] = Tolerability in non-human primates: liver enzymes ALT and AST; type: in vivo; details: ionizable cationic lipid in F9 tLNP, second NHP study
Experimental: A second study was conducted with F9 tLNP to evaluate the tolerability and engineering efficiency of (1) a single administration of a CD5-targeted tLNP (humanized 5D7 targeting antibody) with an mRNA payload encoding an anti-CD19 CAR, (2) a single administration of a CD8-targeted tLNP (chimeric RPA-T8 targeting antibody) with an mRNA payload also encoding the anti-CD19 CAR, and (3) repeat administration (3 doses) of the CD5-targeted tLNP. The CD5-targeted tLNP was administered as a single dose at 3.0 mg/kg (Group 2, n=2) or as a repeat dose of 1.0 mg/kg at 72-hour intervals (Q72h) for three doses (Group 5, n=2). […] As a control, PBS was administered (Group 1, n=1). All tLNP tested in the second study utilized composition F9. […] Clinical observations, clinical pathology, and toxicology biomarkers were evaluated to assess safety and tolerability. Pharmacological assessment was carried out by flow cytometry detection of anti-CD19 CAR in immune cell subsets in peripheral blood and tissues (spleen, bone marrow, lymph node, and liver).
A third study in NHP with F9 tLNP targeted to C08 and encapsulating an mRNA encoding an anti-CD19 CAR was also conducted and the single dose liver enzyme results of all three studies (doses ranging from 3.5 to 3.0 mg mRNA/kg) compiled into single plots of AST and ALT levels for a more global assessment (FIG. 12K).

Chain of signal regulatory protein α (SIRPα) (P78324 31-504): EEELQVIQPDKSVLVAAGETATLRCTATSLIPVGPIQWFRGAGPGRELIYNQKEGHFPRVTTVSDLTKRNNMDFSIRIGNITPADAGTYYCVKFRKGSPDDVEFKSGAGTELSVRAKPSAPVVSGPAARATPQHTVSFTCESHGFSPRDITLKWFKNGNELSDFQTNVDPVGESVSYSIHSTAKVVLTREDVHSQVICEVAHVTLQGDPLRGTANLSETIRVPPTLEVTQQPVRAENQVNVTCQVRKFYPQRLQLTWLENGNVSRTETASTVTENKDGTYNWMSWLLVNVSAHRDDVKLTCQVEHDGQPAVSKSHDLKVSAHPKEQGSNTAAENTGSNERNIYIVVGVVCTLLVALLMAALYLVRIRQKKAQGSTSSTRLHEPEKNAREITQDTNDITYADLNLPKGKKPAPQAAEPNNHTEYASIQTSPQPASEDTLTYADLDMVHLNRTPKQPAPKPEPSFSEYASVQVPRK

Compound | binding affinity to SIRPα, fold stronger than full-length CD47 protein [1] | concentration remaining in blood, fold greater (than CICL1) ([2]; 24 hours after 3 mg mRNA/kg tLNP, FIG. 13B) | plasma levels of lipid at 7 days [3] | lipid levels in spleen and liver throughout the 7 days ([3]; FIGS. 13D-E) | tolerability [4] | concentrations in blood, liver, and spleen relative to each other ([2]; 24 hours) | spleen concentration, fold less than for ALC-0315 ([2]; 24 hours) | amount of lipid present in blood, liver, and spleen ([2]; 24 hours after 3 mg mRNA/kg tLNP) | biodegradability compared with ALC-0315 ([2]; clearance data) | time after administration by which levels were falling in the spleen ([3]; FIG. 13D) | time after administration by which levels were falling in the liver ([3]; FIG. 13E)
NYTCEVTELSREGKTVIELK (SEQ ID NO: 3) [CD47 peptide] | 10 fold | – | – | – | – | – | – | – | – | – | –
CCCCCCCCC(CCCCCC)C(=O)OCCCCCCN(CCCCO)CCCCCCOC(=O)C(CCCCCC)CCCCCCCC (stereo not drawn) [ALC-0315, [(4-Hydroxybutyl)azanediyl)di(hexane-6,1-diyl) bis(2-hexyldecanoate), reference compound] | – | about 6 fold | still detected | remained almost unchanged | – | – | – | – | – | – | –
CCCCCCCCC(=O)OCC(COC(=O)CCCCCCCC)CC(=O)OCCN(CCOC(=O)CC(COC(=O)CCCCCCCC)COC(=O)CCCCCCCC)C(=O)OCCN(C)C [CICL1] | – | – | returned to baseline | – | well tolerated | ≤ 2 fold | ~35 fold | only very small amounts | much more biodegradable | ≤ 1 h | ≤ 2 h
